pKd: −log10 of the molar value.
Columns and labels:
Assay in all cases: 8-[Fluo]-cAMP Fluorescence Polarization Binding Assay
[1] = target: cAMP-dependent protein kinase type I-alpha regulatory subunit [R241A] (Homo sapiens, UniProt P10644, R241A)
Description: (§1) The ability of the R subunit basic patch mutants to bind cAMP in the absence of the C subunit was tested using the fluorescent cAMP analogue, 8-[fluo]-cAMP (Biolog), used at a final concentration of 10 nM. Wells were titrated with a rangeof R subunit concentrations (from 0 to 125 nM), which were diluted with FP assay buffer.

[2] = target: cAMP-dependent protein kinase type I-alpha regulatory subunit [K244A] (Homo sapiens, UniProt P10644, K244A)
Description: as §1

[3] = target: cAMP-dependent protein kinase type I-alpha regulatory subunit (Homo sapiens, UniProt P10644)
Description: as §1

[4] = target: cAMP-dependent protein kinase type I-alpha regulatory subunit [K242A] (Homo sapiens, UniProt P10644, K242A)
Description: as §1

[5] = target: cAMP-dependent protein kinase type I-alpha regulatory subunit [R243A] (Homo sapiens, UniProt P10644, R243A)
Description: as §1

cAMP-dependent protein kinase type I-alpha regulatory subunit [R243A], sequence (P10644 whole entry R243A): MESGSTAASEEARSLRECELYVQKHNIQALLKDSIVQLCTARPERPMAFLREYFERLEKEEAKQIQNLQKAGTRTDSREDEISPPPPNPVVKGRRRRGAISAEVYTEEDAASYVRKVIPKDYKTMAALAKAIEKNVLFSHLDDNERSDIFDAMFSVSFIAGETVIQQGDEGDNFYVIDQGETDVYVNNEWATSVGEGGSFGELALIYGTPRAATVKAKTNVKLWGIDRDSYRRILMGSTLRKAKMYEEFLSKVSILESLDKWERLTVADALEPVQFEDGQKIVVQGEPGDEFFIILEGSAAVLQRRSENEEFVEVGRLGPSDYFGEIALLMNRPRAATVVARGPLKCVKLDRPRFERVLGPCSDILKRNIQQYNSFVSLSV
cAMP-dependent protein kinase type I-alpha regulatory subunit [K242A], sequence (P10644 whole entry K242A): as the sequence (P10644 whole entry R243A) above, with K242A, A243R counted along it
cAMP-dependent protein kinase type I-alpha regulatory subunit [R241A], sequence (P10644 whole entry R241A): as the sequence (P10644 whole entry R243A) above, with R241A, A243R counted along it
cAMP-dependent protein kinase type I-alpha regulatory subunit [K244A], sequence (P10644 whole entry K244A): as the sequence (P10644 whole entry R243A) above, with A243R, K244A counted along it
cAMP-dependent protein kinase type I-alpha regulatory subunit, sequence (P10644 whole entry): as the sequence (P10644 whole entry R243A) above, with A243R counted along it

- pKd [1]: 8.17
- pKd [2]: 8.11
- pKd [3]: 8.14
- pKd [4]: 8.14
- pKd [5]: 8.14
SMILES: Nc1ncnc2c1nc(SCCNC(=S)Nc1ccc(-c3c4ccc(=O)cc-4oc4cc(O)ccc34)c(C(=O)O)c1)n2C1OC2COP(=O)(O)OC2C1O (stereo not given) [8-[Fluo]-cAMP]
